Results as given in patent publication US11584744B2 (UNIVERSITY OF WASHINGTON, priority 2017, dated 2023).
In brackets after ≈: the same amount, converted by molar mass. Read-outs that look alike come from different tables or passages of the source. Marks after values point to notes of the source that are not given here.

Tests used:
[1] = biological target: recombinant S. aureus MetRS enzyme (Staphylococcus aureus, UniProt A0A0H2XID2); experiment: Inhibition of SaMetRS, ATP depletion assay; format: biochemical
Summary of the method: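 N-terminal 6-His S. aureus MetRS (25 nM) was pre-incubated 15 min at room temperature with compound, 400 μg/mL E. coli tRNA and pyrophosphatase in HEPES-KOH pH 7.9, 2% DMSO. Reaction started with 150 nM ATP plus 20 μM L-methionine, ran 120 min; remaining ATP read by Kinase-Glo luminescence, IC50 by sigmoidal nonlinear regression.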

S. aureus (ATCC 29213) [2] = experiment: Macromolecular synthesis assays (radiolabeled precursor incorporation); format: cell-based, Staphylococcus aureus; details: 30 minute incubations
Experimental: Macromolecular synthesis assays: Methods for measuring uptake of radiolabeled precursors by S. aureus (ATCC strain 29213) were adapted from previous publications. For these assays, bacteria were grown in defined media (DM): RPMI-1640 pH 7.3±0.1 without phenol red or L-glutamine (Lonza, Basel, Switzerland) supplemented with 4 mM L-glutamine (Lonza, Basel, Switzerland), 10 mM HEPES (Lonza, Basel, Switzerland), and 1% (w/v) D-glucose (Sigma Aldrich, St. Louis, Mo.). Fresh overnight cultures grown in DM at 37° C. were diluted 1:50 in pre-warmed DM and grown at 37° C. with shaking (150 rpm) until reaching an OD600 of 0.420 correlating to ˜1*10^9 CFUs/mL in mid-log phase. Each compound was assayed in quadruplicate with an 11-point three-fold serial dilution per radioisotope. A pre-warmed 96-well V-bottom plate (Corning 3894; Corning, Corning, Mass.) containing 25 μL of 4× final concentration of test compound was inoculated with 65 μL of mid-log phase bacteria (OD600 of 0.420). Both positive and negative control wells received 25 μL untreated DM and 65 μL of inoculum at the same time. After one minute, 10 μL of radiolabeled precursor (10× final concentration in DM) was added to samples and positive control wells. Final isotope concentrations for assay of [3H]-lysine (protein), [3H]-thymidine (DNA), and [3H]-uridine (RNA) were 10 μCi/mL, 2 μCi/mL, and 2 μCi/mL respectively. […] After termination, 10 μL of 10× radiolabeled precursor was added to negative control wells. The negative control consisted of adding radiolabeled precursors after termination of the bacterial incubation in order to represent background measurement of the isotope. Plates were sealed with plate tape (Thermo Fischer Scientific, Waltham, Mass.) and shaken at 250 rpm for one hour at room temperature. Aliquots of 125 μL were transferred from the 96-well V-bottom plates to 96-well filter plates (Merck Millipore, Billerica, Mass.). To bind macromolecules, the samples were passed through the filter membrane (0.45 μM hydrophilic Durapore PVDF membrane) with a vacuum manifold, then the filter was washed with 4×200 μL 10% TCA and 1×150 μL of 95% ethanol, and dried overnight in vacuum at room temperature. 25 μL Ultima Gold scintillation fluid (Perkin Elmer, Waltham, Mass.) was added to each well and DPM was quantified using a MicroBeta^2-2450 (Perkin Elmer, Waltham, Mass.) scintillation counter. The percent incorporation was determined by subtracting each well by the average negative background and dividing by the average positive incorporation×100. Error bars represent SEM between replicates. The assay was run twice with similar results.

S. aureus = experiment: Serum shift assays (MIC with and without 50% human serum); format: cell-based, Staphylococcus aureus; details: for MIC: Staphylococcus aureus
Experimental: Serum shift assays: To assess the role of protein binding on compound susceptibility, MIC determinations were performed in triplicate in the presence and absence of 50% human serum. Serial threefold dilutions of 2× compound were generated in MHB and aliquoted onto 96 well plates with a DMSO limit of 0.5%. Bacteria were adjusted to 1*10^8 CFUs/mL in MHB, then further diluted 1:100 in MHB and 100% heat deactivated filter sterilized pooled human serum. Fifty microliters were added to each well of the corresponding plates, and the plates were incubated at 37° C. for ˜20 h. The lowest concentration causing ≥90% growth inhibition was recorded as the MIC.

[3] = system: E. faecium VRE (ATCC 51559); experiment: MIC susceptibility testing; format: cell-based, Enterococcus faecium
Summary of the method: (§1)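 CLSI broth microdilution in triplicate, 5×10^5 CFU/mL final, ≤0.5% DMSO; MHB for S. aureus, CA-MHB for E. coli and E. faecium, CA-MHB plus 3% laked horse blood for S. pyogenes (5% CO2).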

E. coli (ATCC 25922) = experiment: MIC susceptibility testing; format: cell-based; details: Escherichia coli, ATCC25922
Summary of the method: as §1

[4] = system: S. aureus VISA (ATCC 700699); experiment: MIC susceptibility testing; format: cell-based
Summary of the method: as §1

E. faecium (ATCC 19434) = experiment: MIC susceptibility testing; format: cell-based
Summary of the method: as §1

S. pyogenes (ATCC 19615) = experiment: MIC susceptibility testing; format: cell-based; details: Streptococcus pyogenes, ATCC19615, 18 h, read-out: S. pyogenes (ATCC 19615) MIC
[5] = system: S. aureus MSSA (ATCC 29213); experiment: MIC susceptibility testing; format: cell-based, Staphylococcus aureus
[6] = Cytotoxicity testing on mammalian cells (AlamarBlue, 48 hours); format: cell-based; details: human
Experimental: Cytotoxicity testing on mammalian cells: Compounds were assayed for cytotoxicity against CRL-8155 (human lymphoblasts) and HepG2 cells (human hepatocellular carcinoma). Cells were exposed to serial dilutions of compounds for 48 hours and toxicity was quantified using AlamarBlue (ThermoFisher Scientific, Waltham, Mass.). Assays were performed in quadruplicate and EC50 values were calculated with non-linear regression methods using software by the Collaborative Drug Database (Burlingame, Calif. www.collaborativedrug.com)

[7] = system: P. aeruginosa (ATCC 27853); experiment: MIC susceptibility testing; format: cell-based; details: Pseudomonas aeruginosa, ATCC27853
E. faecalis (ATCC 29212) = experiment: MIC susceptibility testing; format: cell-based
[8] = system: S. aureus MRSA (ATCC 43300); experiment: MIC susceptibility testing; format: cell-based
Summary of the method: as §1

[9] = system: S. pneumoniae (ATCC 49619); experiment: MIC susceptibility testing; format: cell-based; details: Streptococcus pneumoniae, ATCC49619, 18 h, read-out: S. pneumoniae (ATCC 49619) MIC
[10] = value printed with (49), probably a literature reference; cited from earlier work
S. aureus (ATCC 29213) [11] = experiment: MBC determinations (with MIC); format: cell-based; details: Staphylococcus aureus, ATCC29213
Experimental: Maximum DMSO concentrations were 0.5%. […] Each experiment's inoculum was serially diluted and plated on TSA to count competent cells. Cultures were incubated at 37° C. for at least 20 h and plated on TSA for CFU determination.
MIC/MBC: Measurements of minimum bactericidal concentrations (MBCs) were done with the S. aureus strain ATCC 29213 (Table 5).

[12] = system: S. aureus MRSA (ATCC 33591); experiment: MIC susceptibility testing; format: cell-based, Staphylococcus aureus; details: Staphylococcus aureus, read-out: S. aureus MRSA (ATCC 33591) MIC
Summary of the method: as §1

[13] = system: S. epidermidis (ATCC 12228); experiment: MIC susceptibility testing; format: cell-based; details: Staphylococcus epidermidis, ATCC12228, read-out: S. epidermidis (ATCC 12228) MIC
[14] = system: S. aureus MSSA (ATCC 19636); experiment: MIC susceptibility testing; format: cell-based; details: Staphylococcus aureus, read-out: S. aureus MSSA (ATCC 19636) MIC
Summary of the method: as §1

[15] = system: S. epidermidis (ATCC 49134); experiment: MIC susceptibility testing; format: cell-based; details: Staphylococcus epidermidis, ATCC49134, read-out: S. epidermidis (ATCC 49134) MIC
[16] = Data from Drugbank; cited from earlier work
[17] = read-out: Avg MIC ± SEM (+50% serum), 50% human serum
[18] = read-out: Avg MIC ± SEM (no serum), no serum
[19] = Enterococcus faecium; read-out: E. faecium VRE (ATCC 51559) MIC
[20] = recombinant enzyme, lower limit of detection 0.025 μM, read-out: MetRS S. aureus (enzyme) IC50
[21] = CRL-8155 cells (human lymphoblasts), read-out: Mamm. cells (CRL8155) CC50
[22] = HepG2 cells (human hepatocellular carcinoma), read-out: Mamm. cells (HepG2) CC50
[23] = medium with 3% laked horse blood

recombinant S. aureus MetRS enzyme, sequence (A0A0H2XID2 2-657): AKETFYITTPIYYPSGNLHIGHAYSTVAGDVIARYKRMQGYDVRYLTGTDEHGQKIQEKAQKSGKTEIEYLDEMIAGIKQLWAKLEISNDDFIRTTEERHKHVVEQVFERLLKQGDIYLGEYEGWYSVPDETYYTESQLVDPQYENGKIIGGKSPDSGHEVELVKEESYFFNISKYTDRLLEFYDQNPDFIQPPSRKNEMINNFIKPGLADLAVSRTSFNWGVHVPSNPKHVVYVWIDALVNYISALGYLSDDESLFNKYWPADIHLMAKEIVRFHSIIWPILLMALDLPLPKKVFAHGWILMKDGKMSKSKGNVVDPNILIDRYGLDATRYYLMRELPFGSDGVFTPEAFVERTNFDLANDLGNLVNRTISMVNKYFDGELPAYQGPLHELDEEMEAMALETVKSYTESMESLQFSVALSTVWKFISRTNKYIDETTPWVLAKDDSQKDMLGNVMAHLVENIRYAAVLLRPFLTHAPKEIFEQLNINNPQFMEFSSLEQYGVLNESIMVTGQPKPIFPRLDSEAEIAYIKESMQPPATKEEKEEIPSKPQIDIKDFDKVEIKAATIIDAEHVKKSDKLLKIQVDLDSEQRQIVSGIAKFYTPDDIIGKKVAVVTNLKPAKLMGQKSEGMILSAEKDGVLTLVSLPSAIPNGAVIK

## O=C(O)c1cn(C2CC2)c2cc(N3CCNCC3)c(F)cc2c1=O [CIP, ciprofloxacin]
[1]
  IC50: > 10 µM
S. aureus (ATCC 29213) [2]
  incorporation of 3H-thymidine (DNA synthesis): selective inhibition of DNA synthesis
S. aureus; [17]
  MIC: 0.152 ± 0.01 µg/mL
S. aureus; [18]
  MIC: 0.145 ± 0.001 µg/mL
[3]; [19]
  MIC: 5 µg/mL (≈ 15.1 µM)
E. coli (ATCC 25922)
  MIC: 0.039 µg/mL (≈ 0.118 µM)
[4]; Staphylococcus aureus; read-out: S. aureus VISA (ATCC 700699) MIC
  MIC: > 10 µg/mL
E. faecium (ATCC 19434); Enterococcus faecium, ATCC19434; read-out: E. faecium (ATCC 19434) MIC
  MIC: 5 µg/mL (≈ 15.1 µM)
S. pyogenes (ATCC 19615)
  MIC: 0.625 µg/mL (≈ 1.89 µM)

## Clc1cc(Cl)cc(CNCCCNc2nc3ncccc3[nH]2)c1 [Compound 1575, N1-(3,5-dichlorobenzyl)—N3-(1H-imidazo[4,5-b]pyridin-2-yl)propane-1,3-diamine]
[1]; [20]
  IC50: < 0.025 µM
[5]; Staphylococcus aureus, 18 h; read-out: S. aureus MSSA (ATCC 29213) MIC
  MIC: 10 µg/mL (≈ 28.6 µM)
[3]; [19]
  MIC: 0.625 µg/mL (≈ 1.78 µM)
[6]; [21]
  CC50 at 48 h: 12.2 µg/mL (≈ 34.8 µM)
[6]; [22]
  CC50 at 48 h: > 17.5 µg/mL
E. coli (ATCC 25922)
  MIC: > 10 µg/mL
[7]
  MIC: > 10 µg/mL
E. faecalis (ATCC 29212); Enterococcus faecalis, ATCC29212; read-out: E. faecalis (ATCC 29212) MIC
  MIC: 1.25 µg/mL (≈ 3.57 µM)
[8]; Staphylococcus aureus; read-out: S. aureus MRSA (ATCC 43300) MIC
  MIC: > 10 µg/mL
[9]; [23]
  MIC: > 10 µg/mL
S. pyogenes (ATCC 19615); [23]
  MIC: > 10 µg/mL

## CN[C@H](CC(C)C)C(=O)N[C@H]1C(=O)N[C@@H](CC(N)=O)C(=O)N[C@H]2C(=O)N[C@H]3C(=O)N[C@H](C(=O)N[C@H](C(=O)O)c4cc(O)cc(O)c4-c4cc3ccc4O)[C@H](O)c3ccc(c(Cl)c3)Oc3cc2cc(c3O[C@@H]2O[C@H](CO)[C@@H](O)[C@H](O)[C@H]2O[C@H]2C[C@](C)(N)[C@H](O)[C@H](C)O2)Oc2ccc(cc2Cl)[C@H]1O [VAN, vancomycin]
[10]
  % binding to mouse plasma: 25 (49) %
[1]; [20]
  IC50: > 10 µM
S. aureus; 50% human serum
  Avg MIC ± SEM (+50% serum): 1.213 ± 0.12 µg/mL
S. aureus; [17]
  MIC: 1.21 µg/mL
S. aureus; [18]
  MIC: 0.714 ± 0.05 µg/mL
S. aureus (ATCC 29213) [11]
  MBC: 5 µg/mL (≈ 3.45 µM)
  MIC: 1.25 µg/mL (≈ 0.863 µM)
[12]
  MIC: 1.25 µg/mL (≈ 0.863 µM)
[5]; Staphylococcus aureus, 18 h, read-out: S. aureus MSSA (ATCC 29213) MIC
  MIC: 1.25 µg/mL (≈ 0.863 µM)
[3]; Enterococcus faecium, read-out: E. faecium VRE (ATCC 51559) MIC
  MIC: > 10 µg/mL
[6]; [21]
  CC50 at 48 h: > 145 µg/mL
[6]; [22]
  CC50 at 48 h: > 145 µg/mL
[13]
  MIC: 2.5 µg/mL (≈ 1.73 µM)
[4]; Staphylococcus aureus, read-out: S. aureus VISA (ATCC 700699) MIC
  MIC: 10 µg/mL (≈ 6.9 µM)
E. faecium (ATCC 19434); Enterococcus faecium, ATCC19434, read-out: E. faecium (ATCC 19434) MIC
  MIC: 0.625 µg/mL (≈ 0.431 µM)
[14]
  MIC: 1.25 µg/mL (≈ 0.863 µM)
[15]
  MIC: 2.5 µg/mL (≈ 1.73 µM)
E. faecalis (ATCC 29212); Enterococcus faecalis, ATCC29212, read-out: E. faecalis (ATCC 29212) MIC
  MIC: 5 µg/mL (≈ 3.45 µM)
[8]; Staphylococcus aureus, read-out: S. aureus MRSA (ATCC 43300) MIC
  MIC: 1.25 µg/mL (≈ 0.863 µM)
[9]
  MIC: 0.313 µg/mL (≈ 0.216 µM)
S. pyogenes (ATCC 19615)
  MIC: 0.625 µg/mL (≈ 0.431 µM)
[16]
  % binding to human plasma: 55* %
